# Laboratory results reported in ChEMBL document CHEMBL1201862, “PubChem BioAssay data set” (2004).
# Calls of active or inactive are those of the source.
# Legend:
# [1] = target: Heat shock protein HSP 90-alpha (Homo sapiens, UniProt P07900); assay: Luminescence-based dose response biochemical high throughput screening assay for inhibitors of the Heat Shock Protein 90 (HSP90). [Related pubchem assays: 1831 (Summary AID.), 1846 (Confirmation screen.), 1789 (Primary screen.)]
# [2] = Late stage assay provider results from the probe development effort to identify selective inhibitors of heat shock protein 90 (HSP90): Absorbance-based cell proliferation assay in SKBR3 cells.; assay type: functional; settings: SK-BR-3
# [3] = Late stage assay provider results from the probe development effort to identify selective inhibitors of heat shock protein 90 (HSP90): Absorbance-based cell proliferation assay in MCF7 cells.; assay type: functional
# [4] = ADAM10 inhibitors, peptide cleavage, dose response, biochemical, QFRET (AID 743254);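 note: ADAM10 enzyme with the DM2 quenched FRET peptide as substrate; EDANS fluorescence gain as the protease cuts the substrate; inhibitor potency against ADAM10 proteolytic activity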
# [5] = target: Disintegrin and metalloproteinase domain-containing protein 17 (Homo sapiens, UniProt P78536); assay: ADAM17 protease inhibitors, dose response, counter-screen for ADAM10 exosite inhibitor project, biochemical, quenched FRET substrate (AID 743253)
# [6] = inhibitors of firefly luciferase expression or activity, dose response, H4 neuroglioma cells, luminescence (AID 1990); assay type: functional, cell-based
# [7] = luciferase reporter signal reduction – luminescence, H4-C neuroglioblastoma cells, dose response (AID 2458); assay type: functional, cell-based;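 note: H4 neuroglioblastoma cells stably carrying a luciferase reporter gene fusion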
# cells [8] = assay type: functional, cell-based
# [9] = inhibitors of SNCA 5'UTR-driven reporter translation, confirmation, H4 neuroglioma cells, luminescence (AID 1988); assay type: functional, cell-based
# [10] = inhibitors of SNCA 5'UTR-driven translation, confirmation, luminescence, H4 neuroglioblastoma cells, dose confirmation (AID 2454); assay type: functional, cell-based;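 note: H4 neuroglioblastoma cells carrying an alpha-synuclein 5'UTR luciferase reporter; potency for inhibition of the luciferase signal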
# [11] = cytotoxicity in HEK-293T cells, dose response, cytotoxicity control for TCR NF-kB inhibitor project, luminescence, T-cell screen hits (AID 489026); assay type: functional, cell-based;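 note: cells exposed to compound about 14 hours before the viability readout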
# P388/ADR = assay: cells; assay type: functional; settings: Mus musculus
# SN12K1 = assay: cells; assay type: functional; settings: Homo sapiens
# P388 = assay: cells; assay type: functional; settings: Mus musculus
# [12] = CFTR ΔF508 corrector activity in bronchial cells, dose response, human bronchial epithelial cells, plate reader, cherry-pick, two tests (AID 743267); assay type: functional, cell-based
# Major prion protein = Major prion protein (Homo sapiens, UniProt P04156); assay type: functional, cell-based
# cells [13] = assay: cells
# [14] = target: Endoplasmic reticulum aminopeptidase 1 (Homo sapiens, UniProt Q9NZ08); assay: ERAP1 aminopeptidase inhibitors, dose response, biochemical, cherry-pick, set 2, plate reader (AID 743314)
# Paired box protein Pax-8 = Paired box protein Pax-8 (Homo sapiens, UniProt Q06710); assay: inhibitors of PAX8-driven TPO luciferase reporter, dose response, RMG-I cells, cherry-pick (AID 687027); assay type: functional, cell-based;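 note: luciferase reporter driven by Pax8 target thyroperoxidase promoter measured by SteadyGlo luminescence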
# [15] = NIH:OVCAR-3 ovarian cancer cell cytotoxicity, dose response, PAX8 inhibitor project, plate reader, dry powder samples (AID 743044); assay type: functional, cell-based
# [16] = IGROV1 ovarian cancer cell cytotoxicity, dose response, PAX8 inhibitor project, plate reader, dry powder samples (AID 743043); assay type: functional, cell-based; settings: IGROV-1
# [17] = cytotoxicity in OVCAR8 ovarian cancer cells, dose response, PAX8 project, cell-based, plate reader, dry powder samples (AID 743197); assay type: functional; settings: OVCAR-8
# [18] = Late stage assay provider results from the probe development effort to identify inhibitors of the Plasmodium falciparum M17 Leucine Aminopeptidase (M17LAP): radiolabel-based cell-based dose response assay to identify compounds that inhibit P. falciparum growth in RBCs Set 2.; assay type: functional
# Galanin receptor type 3 = Galanin receptor type 3 (Homo sapiens, UniProt O60755); assay: Fluorescence-based cell-based primary high throughput dose response assay to identify antagonists of the Galanin Receptor 3 (GalR3).; assay type: functional
# cells [19] = assay type: functional, cell-based; settings: HEK-CNG
# [20] = A2780 ovarian cancer cell cytotoxicity, dose response, cytotoxicity control, plate reader, dry powder samples (AID 743046); assay type: functional, cell-based
# [21] = inhibitors of CMV-promoter luciferase reporter, dose response, counter-screen for Pax8 inhibitor project, cell-based, HEK293, luminescence, dry powder (AID 743020); assay type: functional
# [22] = non-specific cell cytotoxicity, dose response, cytotoxicity control for PAX8 inhibitor project, plate reader, dry powder samples (AID 743021); assay type: functional, cell-based
# [23] = target: Dual specificity tyrosine-phosphorylation-regulated kinase 1A (Rattus norvegicus, UniProt Q63470); assay type: biochemical, Homo sapiens
# [24] = HepG2 cell cytotoxicity, dose response, cytotoxicity control, ATP luminescence, cherry-pick, activator set 2 (AID 1053143); assay type: functional, cell-based
compound,measurement,setting,value
COC(=O)c1ccc2nc(NC(=O)C3CC3)sc2c1,IC50,[1],3.82 µM (active)
same,IC50,[2],> 100 µM (inactive)
same,IC50,[3],49.2 µM (inactive)
O=C(NCCc1nc2ccccc2[nH]1)/C(=C/c1ccc2c(c1)OCO2)NC(=O)c1ccc(Cl)cc1Cl,IC50,[4],> 69.5 µM (inactive)
same,IC50,[5],> 69.5 µM (inactive)
CC(=O)O[C@H]1C(=O)[C@@]2(C)[C@H]([C@H](OC(=O)c3ccccc3)[C@]3(O)C[C@H](OC(=O)[C@H](O)[C@@H](NC(=O)c4ccccc4)c4ccccc4)C(C)=C1C3(C)C)[C@]1(OC(C)=O)CO[C@@H]1C[C@@H]2O [PACLITAXEL],EC50,[6],10.6 µM (active)
same,EC50,[7],39 nM (active)
same,EC50,cells [8],86 nM (active)
same,EC50,[9],< 100 nM (active)
same,EC50,[10],69 nM (active)
same,IC50,[11],> 80 µM (inactive)
same,GI50,P388/ADR,605 nM (active)
same,GI50,SN12K1,3.27 nM (active)
same,GI50,P388,5.69 nM (active)
same,AC50,[12],3.59 µM (active)
O=C(O)c1cc(-c2cccnc2)nc2ccc(Br)cc12,IC50,Major prion protein,13.8 µM (inactive)
same,IC50,cells [13],> 138 µM (inactive)
O=C(NCC1CC1)[C@@H]1[C@@H](CO)[C@@H]2Cn3c(ccc(/C=C/c4ccccc4)c3=O)[C@H]1N2C(=O)C1CC1,AC50,[14],14.7 µM (active)
C[C@@H]1CN([C@@H](C)CO)C(=O)c2cc(NC(=O)Nc3ccc(C(F)(F)F)cc3)ccc2O[C@@H](C)CCCCO[C@H]1CN(C)Cc1ccncc1,AC50,Paired box protein Pax-8,8.41 µM (active)
same,AC50,[15],29.5 µM (active)
same,AC50,[16],53.7 µM (active)
same,AC50,[17],53.8 µM (active)
O=C(Cc1ccc(OCc2ccccc2)cc1)NO,IC50,[18],4.7 µM (active)
O=c1c(Cl)c(NCC2CCCO2)cnn1C12CC3CC(CC(C3)C1)C2 (configuration not stated),IC50,Galanin receptor type 3,> 29.9 µM (inactive)
same,EC50,cells [19],> 29.9 µM (inactive)
C[C@@H]1CN([C@@H](C)CO)S(=O)(=O)c2ccc(C#CC3CCCC3)cc2O[C@H]1CN(C)Cc1cccnc1,AC50,Paired box protein Pax-8,8.33 µM (active)
same,AC50,[20],15 µM (active)
same,AC50,[21],47.5 µM (active)
same,AC50,[15],25.7 µM (active)
same,AC50,[22],57.1 µM (active)
C=CS(=O)(=O)c1c2cc(OC)ccc2nc2ccc(OC)cc12,AC50,[23],682 nM (active)
same,AC50,[24],25.4 µM (active)
